Data as given in patent US5523289A, “Pharmaceutical composition” (Abbott Laboratories, priority 1993, dated 1996).

Legend:
salt depleted dogs = experiment: Blood pressure in salt depleted dogs after oral or intravenous administration; assay type: in vivo
[1] = dog, in vivo, po
Method: The following compositions comprising compound I were prepared and the bioavailability of each composition was determined in fasted dogs.
Dogs (beagle dogs, mixed sexes, weighing about 10 kg) were fasted for at least 12 hours before dosing. Food was returned after the last blood sample was collected (24 hours). Water was available at all times.
A dose equivalent to 50 or 100 milligrams of compound I was administered by mouth to each dog, followed with either 20 or 50 ml of water through a feeding tube.
Blood samples were collected at the following times: 0, 0.5, 1, 2, 3, 4, 6, 8, 12 and 24 hours. Blood samples of 3 ml volume were anti-coagulated with EDTA. The plasma was separated by centrifugation and frozen until analyzed. Blood plasma concentrations of compound I were determined by HPLC.
Bioavailability was calculated as follows: % Bioavailability=[(AUC)oral×D/(AUC) intravenous]×100. (AUC)oral and (AUC) intravenous are the areas under the curve for the plasma concentration-time profiles following oral and intravenous administration, respectively. D is defined as the intravenous vs. oral DOSE ratio. In particular, D=(DOSE)iv/DOSE)oral. The intravenous dose was 3.0 mg/kg and oral dose was about 5.0 mg/kg or about 10.0 mg/kg. The (AUC) intravenous value used corresponds to the mean value from a separate group of 6 dogs.

CC(C)C[C@H](O)[C@H](O)[C@H](CC1CCCCC1)NC(=O)[C@H](Cc1cscn1)NC(=O)[C@H](Cc1ccccc1)CS(=O)(=O)N1CCN(C)CC1 [compound I, (2S)-2-Benzyl-3-(1-methyl-piperazin-4-ylsulfonyl)propionyl-(L)-(4-Thiazolyl)Ala Amide of (2S, 3R, 4S)-2-Amino-1-cyclohexyl-3,4-dihydroxy-6-methylheptane]
effect on blood pressure (salt depleted dogs): reduces blood pressure | times more bioavailable orally as a tablet with organic polycarboxylic acid compared to tablet or powder filled capsule without the acid [1]: ≤ 7.8 times
